In PMC11124822, “Discovery and Anticancer Screening of Novel Oxindole-Based Derivative Bearing Pyridyl Group as Potent and Selective Dual FLT3/CDK2 Kinase Inhibitor” (Pharmaceuticals, 2024):

What was measured:
NCI-H23 = experiment: NCI-60 antiproliferative screen (SRB); assay type: cell-based, human; conditions: 48 h; for inhibition at 10 µM: 10 µM single dose, NCI-H23 (NSCLC), read-out: Growth inhibition (%)
U251 = experiment: NCI-60 antiproliferative screen (SRB); assay type: cell-based, human; conditions: 48 h; for inhibition at 10 µM: 10 µM single dose, U251 (CNS), read-out: Growth inhibition (%)
Breast cancer subpanel = experiment: NCI-60 screen, subpanel summary; assay type: cell-based, human
Text: (§1) (Table 5). Moreover, the ratio of the MG-MID of the full-panel to its individual sub-panels offers the selectivity index.

CNS cancer subpanel = experiment: NCI-60 screen, subpanel summary; assay type: cell-based, human
Text: as §1

Colon cancer subpanel = experiment: NCI-60 screen, subpanel summary; assay type: cell-based, human
Text: as §1

Leukemia subpanel = experiment: NCI-60 screen, subpanel summary; assay type: cell-based, human
Text: as §1

Melanoma subpanel = experiment: NCI-60 screen, subpanel summary; assay type: cell-based, human
Text: as §1

NSCL cancer subpanel = experiment: NCI-60 screen, subpanel summary; assay type: cell-based, human
Text: as §1

Ovarian cancer subpanel = experiment: NCI-60 screen, subpanel summary; assay type: cell-based, human
Text: as §1

Prostate cancer subpanel = experiment: NCI-60 screen, subpanel summary; assay type: cell-based, human
Text: as §1

Renal cancer subpanel = experiment: NCI-60 screen, subpanel summary; assay type: cell-based, human
Text: as §1

FGFR1 = target: T1, FGFR1 (Homo sapiens, UniProt P11362); experiment: Z'-LYTE kinase assay; assay type: biochemical
T1 construct: purchased Invitrogen/Life Technologies
Procedure: (§2) The inhibition percentages of the target compound 5l at a concentration of 10 µM were assessed using DMSO as a solvent against ten kinases, namely PTK2B, JAK1, CDK2, FGFR1, IGF1R, VEGFR-2, PDGFRα, PDGFRβ, FLT3, and Src. The Z’-LYTE® technology, which relies on FRET (Fluorescence Resonance Energy Transfer) from Invitrogen/Life Technologies, was employed for this evaluation for all kinases except VEGFR-2. The VEGFR-2 kinase assay was conducted in a 96-well streptavidin-coated plate using a recombinant human VEGFR-2/KDR ELISA kit, following the manufacturer’s instructions. […] Statistical significance was assessed using one-way analysis of variance (ANOVA), followed by the Dunnett test; data are represented as means ± SD.

IGF1R = target: T2, IGF1R (Homo sapiens, UniProt P08069); experiment: Z'-LYTE kinase assay; assay type: biochemical
T2 construct: purchased Invitrogen/Life Technologies
T2 sequence (P08069 31-1367): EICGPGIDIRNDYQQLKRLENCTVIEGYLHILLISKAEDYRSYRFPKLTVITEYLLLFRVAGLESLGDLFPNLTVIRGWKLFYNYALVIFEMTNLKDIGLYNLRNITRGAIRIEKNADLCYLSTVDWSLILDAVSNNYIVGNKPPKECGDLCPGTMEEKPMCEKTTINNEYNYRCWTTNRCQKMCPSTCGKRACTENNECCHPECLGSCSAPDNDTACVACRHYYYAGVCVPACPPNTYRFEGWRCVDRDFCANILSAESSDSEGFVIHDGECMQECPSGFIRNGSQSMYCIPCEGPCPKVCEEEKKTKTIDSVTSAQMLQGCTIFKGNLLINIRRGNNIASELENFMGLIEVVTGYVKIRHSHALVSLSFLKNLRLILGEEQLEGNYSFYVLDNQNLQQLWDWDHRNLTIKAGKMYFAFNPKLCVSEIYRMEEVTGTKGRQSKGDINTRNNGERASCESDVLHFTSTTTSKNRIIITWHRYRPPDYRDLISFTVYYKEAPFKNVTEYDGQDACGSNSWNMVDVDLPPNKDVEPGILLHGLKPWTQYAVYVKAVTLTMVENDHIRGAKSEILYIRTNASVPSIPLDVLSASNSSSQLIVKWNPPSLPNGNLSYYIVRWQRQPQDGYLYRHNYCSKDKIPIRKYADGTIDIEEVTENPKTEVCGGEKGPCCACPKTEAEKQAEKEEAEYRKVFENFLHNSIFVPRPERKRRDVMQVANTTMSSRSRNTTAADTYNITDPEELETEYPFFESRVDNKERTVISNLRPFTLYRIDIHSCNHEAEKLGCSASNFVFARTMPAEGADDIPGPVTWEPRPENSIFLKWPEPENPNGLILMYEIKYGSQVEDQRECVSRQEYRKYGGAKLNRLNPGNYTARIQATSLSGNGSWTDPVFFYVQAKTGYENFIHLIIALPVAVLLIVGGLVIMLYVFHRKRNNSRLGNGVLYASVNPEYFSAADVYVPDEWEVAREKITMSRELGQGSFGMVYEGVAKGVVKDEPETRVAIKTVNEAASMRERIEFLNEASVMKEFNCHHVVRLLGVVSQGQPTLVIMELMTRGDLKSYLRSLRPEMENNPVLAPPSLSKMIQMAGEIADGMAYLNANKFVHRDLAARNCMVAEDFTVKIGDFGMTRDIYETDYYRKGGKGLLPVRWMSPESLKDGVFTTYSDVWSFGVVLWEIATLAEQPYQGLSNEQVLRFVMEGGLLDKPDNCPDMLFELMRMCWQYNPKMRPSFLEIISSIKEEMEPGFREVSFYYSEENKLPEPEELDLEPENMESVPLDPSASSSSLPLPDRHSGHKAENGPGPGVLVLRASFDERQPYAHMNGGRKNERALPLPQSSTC
Procedure: as §2

JAK1 = target: T3, JAK1 (Homo sapiens, UniProt P23458); experiment: Z'-LYTE kinase assay; assay type: biochemical
T3 construct: purchased Invitrogen/Life Technologies
T3 sequence (P23458 whole entry): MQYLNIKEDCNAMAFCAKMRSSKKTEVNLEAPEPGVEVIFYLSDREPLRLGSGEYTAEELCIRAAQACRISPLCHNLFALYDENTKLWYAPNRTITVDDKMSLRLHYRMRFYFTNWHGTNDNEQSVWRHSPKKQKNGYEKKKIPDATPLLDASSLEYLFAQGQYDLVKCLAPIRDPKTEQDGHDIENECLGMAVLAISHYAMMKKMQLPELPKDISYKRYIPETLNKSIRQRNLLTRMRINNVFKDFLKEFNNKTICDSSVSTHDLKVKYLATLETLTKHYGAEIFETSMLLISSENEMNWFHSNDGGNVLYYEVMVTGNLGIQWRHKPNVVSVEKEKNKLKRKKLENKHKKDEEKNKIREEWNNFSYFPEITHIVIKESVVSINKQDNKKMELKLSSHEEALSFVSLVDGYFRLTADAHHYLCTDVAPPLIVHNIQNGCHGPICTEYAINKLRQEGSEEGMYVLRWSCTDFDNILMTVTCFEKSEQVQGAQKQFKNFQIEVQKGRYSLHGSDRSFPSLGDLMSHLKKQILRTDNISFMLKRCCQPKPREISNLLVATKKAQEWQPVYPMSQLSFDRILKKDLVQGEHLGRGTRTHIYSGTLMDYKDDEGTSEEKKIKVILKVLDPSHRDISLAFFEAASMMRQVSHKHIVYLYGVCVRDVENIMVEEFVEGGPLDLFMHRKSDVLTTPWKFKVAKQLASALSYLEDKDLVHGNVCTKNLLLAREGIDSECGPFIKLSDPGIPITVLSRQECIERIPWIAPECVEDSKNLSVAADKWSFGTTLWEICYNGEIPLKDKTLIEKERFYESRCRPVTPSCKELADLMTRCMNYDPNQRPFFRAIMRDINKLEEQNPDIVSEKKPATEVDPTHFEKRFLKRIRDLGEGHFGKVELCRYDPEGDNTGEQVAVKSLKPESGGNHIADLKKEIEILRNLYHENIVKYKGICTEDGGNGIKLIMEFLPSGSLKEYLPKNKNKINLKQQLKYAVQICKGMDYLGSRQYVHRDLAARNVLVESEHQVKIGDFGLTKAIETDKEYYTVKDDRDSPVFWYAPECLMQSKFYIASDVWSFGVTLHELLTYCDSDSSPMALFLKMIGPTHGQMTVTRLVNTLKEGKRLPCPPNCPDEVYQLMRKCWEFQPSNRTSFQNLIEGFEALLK
Procedure: as §2

PDGFRα = target: T4, PDGFRα (Homo sapiens, UniProt P16234); experiment: Z'-LYTE kinase assay; assay type: biochemical
T4 construct: purchased Invitrogen/Life Technologies
Procedure: as §2

PDGFRβ = target: T5, PDGFRβ (Homo sapiens, UniProt P09619); experiment: Z'-LYTE kinase assay; assay type: biochemical
T5 construct: purchased Invitrogen/Life Technologies
Procedure: as §2

PTK2B = target: T6, PTK2B (Homo sapiens, UniProt Q14289); experiment: Z'-LYTE kinase assay; assay type: biochemical
T6 construct: purchased Invitrogen/Life Technologies
T6 sequence (Q14289 whole entry): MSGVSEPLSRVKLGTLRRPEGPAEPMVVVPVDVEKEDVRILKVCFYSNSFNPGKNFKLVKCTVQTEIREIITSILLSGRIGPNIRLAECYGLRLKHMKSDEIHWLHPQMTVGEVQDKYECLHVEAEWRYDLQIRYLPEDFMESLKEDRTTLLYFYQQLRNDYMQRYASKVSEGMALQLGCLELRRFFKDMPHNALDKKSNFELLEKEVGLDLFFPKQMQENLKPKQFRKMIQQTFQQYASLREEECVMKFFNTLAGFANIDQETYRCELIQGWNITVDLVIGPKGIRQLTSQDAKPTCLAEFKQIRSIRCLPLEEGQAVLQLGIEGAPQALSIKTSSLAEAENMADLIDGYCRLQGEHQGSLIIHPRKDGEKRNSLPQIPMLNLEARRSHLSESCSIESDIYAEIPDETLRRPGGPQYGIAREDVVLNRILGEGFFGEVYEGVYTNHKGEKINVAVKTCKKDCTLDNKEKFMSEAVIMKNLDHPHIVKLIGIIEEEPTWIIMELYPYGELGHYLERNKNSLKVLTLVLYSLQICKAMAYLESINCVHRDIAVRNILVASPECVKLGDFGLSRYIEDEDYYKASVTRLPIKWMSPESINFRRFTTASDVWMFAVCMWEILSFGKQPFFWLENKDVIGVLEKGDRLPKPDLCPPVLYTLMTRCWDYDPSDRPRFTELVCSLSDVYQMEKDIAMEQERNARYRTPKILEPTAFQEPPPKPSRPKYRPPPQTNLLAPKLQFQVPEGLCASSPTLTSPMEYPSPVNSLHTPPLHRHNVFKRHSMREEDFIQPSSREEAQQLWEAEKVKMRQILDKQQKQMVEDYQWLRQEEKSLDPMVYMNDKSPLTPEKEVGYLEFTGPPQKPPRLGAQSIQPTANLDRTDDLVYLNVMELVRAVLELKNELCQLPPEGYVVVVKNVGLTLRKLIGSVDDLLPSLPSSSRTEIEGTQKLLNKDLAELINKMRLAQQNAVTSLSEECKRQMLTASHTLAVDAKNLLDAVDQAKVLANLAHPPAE
Procedure: as §2

SRC = target: T7, SRC (Homo sapiens, UniProt P12931); experiment: Z'-LYTE kinase assay; assay type: biochemical
T7 construct: purchased Invitrogen/Life Technologies
Procedure: as §2

VEGFR-2 = target: T8, VEGFR-2 (Homo sapiens, UniProt P35968); experiment: VEGFR-2/KDR ELISA kit kinase assay; assay type: biochemical
T8 construct: purchased
T8 sequence (P35968 20-1356): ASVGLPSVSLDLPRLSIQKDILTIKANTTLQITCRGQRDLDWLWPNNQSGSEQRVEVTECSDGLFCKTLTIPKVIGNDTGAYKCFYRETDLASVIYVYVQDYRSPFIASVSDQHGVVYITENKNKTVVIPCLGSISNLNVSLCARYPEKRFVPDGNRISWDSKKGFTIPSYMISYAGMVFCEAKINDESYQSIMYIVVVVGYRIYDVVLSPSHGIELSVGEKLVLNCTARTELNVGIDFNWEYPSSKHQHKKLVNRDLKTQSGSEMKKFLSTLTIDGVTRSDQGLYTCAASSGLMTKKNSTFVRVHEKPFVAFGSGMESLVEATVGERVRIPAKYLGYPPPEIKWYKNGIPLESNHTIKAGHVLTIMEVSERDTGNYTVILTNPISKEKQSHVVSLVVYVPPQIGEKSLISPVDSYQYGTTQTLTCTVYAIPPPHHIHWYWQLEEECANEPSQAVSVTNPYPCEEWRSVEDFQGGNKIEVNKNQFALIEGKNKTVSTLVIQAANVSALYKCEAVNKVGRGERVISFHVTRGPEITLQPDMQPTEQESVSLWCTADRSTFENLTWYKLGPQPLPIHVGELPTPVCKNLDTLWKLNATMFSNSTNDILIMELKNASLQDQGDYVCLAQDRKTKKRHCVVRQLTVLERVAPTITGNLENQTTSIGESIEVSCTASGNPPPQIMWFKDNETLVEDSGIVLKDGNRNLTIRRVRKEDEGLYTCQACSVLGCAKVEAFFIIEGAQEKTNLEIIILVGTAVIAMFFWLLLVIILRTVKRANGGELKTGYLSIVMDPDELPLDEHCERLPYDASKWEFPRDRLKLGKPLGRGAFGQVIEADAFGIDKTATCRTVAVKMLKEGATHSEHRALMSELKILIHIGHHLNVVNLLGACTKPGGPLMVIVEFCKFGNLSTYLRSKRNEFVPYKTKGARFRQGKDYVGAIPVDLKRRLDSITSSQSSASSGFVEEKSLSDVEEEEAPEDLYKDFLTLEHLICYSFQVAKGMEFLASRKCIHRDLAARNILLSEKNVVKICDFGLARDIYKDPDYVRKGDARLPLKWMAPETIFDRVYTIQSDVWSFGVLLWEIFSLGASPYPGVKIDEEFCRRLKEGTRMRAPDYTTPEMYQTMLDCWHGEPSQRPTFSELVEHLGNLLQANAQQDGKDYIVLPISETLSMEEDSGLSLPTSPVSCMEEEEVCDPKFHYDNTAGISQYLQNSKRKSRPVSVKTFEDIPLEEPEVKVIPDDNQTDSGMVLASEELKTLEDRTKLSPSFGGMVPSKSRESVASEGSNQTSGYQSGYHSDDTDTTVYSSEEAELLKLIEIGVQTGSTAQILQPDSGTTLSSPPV
Procedure: as §2

CDK2 = target: T9, CDK2 (Homo sapiens, UniProt P24941); experiment: Z'-LYTE kinase assay; assay type: biochemical
T9 construct: purchased Invitrogen/Life Technologies
Procedure: as §2, with “The” for “The inhibition percentages of the target compound 5l at a concentration of 10 µM were assessed using DMSO as a solvent against ten kinases, namely PTK2B, JAK1, CDK2, FGFR1, IGF1R, VEGFR-2, PDGFRα, PDGFRβ, FLT3, and Src. The”

O=C1Nc2ccccc2C1=Cc1ccc(OCc2ccccc2)cc1 (mixture of isomers) [Compound 5a, (E/Z)-3-[4-(Benzyloxy)benzylidene] indolin-2-one]
inhibition at 10 µM (NCI-H23; Homo sapiens): -2.42% | inhibition at 10 µM (U251; Homo sapiens, U-251): -3.49%

O=C1Nc2ccc(F)cc2C1=Cc1ccc(OCc2ccccc2)cc1 (mixture of isomers) [Compound 5b, (E/Z)-3-[4-(Benzyloxy)benzylidene]-5-fluoroindolin-2-one]
inhibition at 10 µM (NCI-H23; Homo sapiens): 1.73% | inhibition at 10 µM (U251; Homo sapiens, U-251): 0.4%

O=C1Nc2ccccc2C1=Cc1ccc(OCc2ccncc2)cc1 (mixture of isomers) [Compound 5m, (E/Z)-3-[4-(Pyridin-4-ylmethoxy)benzylidene] indolin-2-one]
inhibition at 10 µM (NCI-H23; Homo sapiens): 49.8% | inhibition at 10 µM (U251; Homo sapiens, U-251): 38.9%

O=C1Nc2ccc(F)cc2C1=Cc1ccc(OCc2ccncc2)cc1 (mixture of isomers) [Compound 5n, (E/Z)-5-Fluoro-3-[4-(pyridin-4-ylmethoxy)benzylidene] indolin-2-one]
inhibition at 10 µM (NCI-H23; Homo sapiens): 58.6% | inhibition at 10 µM (U251; Homo sapiens, U-251): 61.3%

O=C1Nc2ccc(Cl)cc2C1=Cc1ccc(OCc2ccccc2)cc1 (mixture of isomers) [Compound 5c, (E/Z)-3-[4-(Benzyloxy)benzylidene]-5-chloroindolin-2-one]
inhibition at 10 µM (NCI-H23; Homo sapiens): -1.96% | inhibition at 10 µM (U251; Homo sapiens, U-251): -1.54%

O=C1Nc2ccccc2C1=Cc1ccc(OCc2cccnc2)cc1 (mixture of isomers) [Compound 5i, (E/Z)-3-[4-(Pyridin-3-ylmethoxy)benzylidene]indolin-2-one]
inhibition at 10 µM (NCI-H23; Homo sapiens): 42.4% | inhibition at 10 µM (U251; Homo sapiens, U-251): 53.2%

O=C1Nc2ccc(F)cc2C1=Cc1ccc(OCc2ccccn2)cc1 (mixture of isomers) [Compound 5f, (E/Z)-5-fluoro-3-[4-(pyridin-2-ylmethoxy)benzylidene]indolin-2-one]
inhibition at 10 µM (NCI-H23; Homo sapiens): 28% | inhibition at 10 µM (U251; Homo sapiens, U-251): 41.8%

O=C1Nc2cc(Cl)ccc2C1=Cc1ccc(OCc2ccncc2)cc1 (mixture of isomers) [Compound 5p, (E/Z)-6-Chloro-3-[4-(pyridin-4-ylmethoxy)benzylidene]indolin-2-one]
inhibition at 10 µM (NCI-H23; Homo sapiens): 57.2% | inhibition at 10 µM (U251; Homo sapiens, U-251): 64.4%

O=C1Nc2ccc(F)cc2C1=Cc1ccc(OCc2cccnc2)cc1 (mixture of isomers) [Compound 5j, (E/Z)-5-Fluoro-3-[4-(pyridin-3-ylmethoxy)benzylidene]indolin-2-one]
inhibition at 10 µM (NCI-H23; Homo sapiens): 58.2% | inhibition at 10 µM (U251; Homo sapiens, U-251): 83.7%

O=C1Nc2cc(Cl)ccc2C1=Cc1ccc(OCc2ccccn2)cc1 (mixture of isomers) [Compound 5h, (E/Z)-6-Chloro-3-[4-(pyridin-2-ylmethoxy)benzylidene]indolin-2-one]
inhibition at 10 µM (NCI-H23; Homo sapiens): 47.4% | inhibition at 10 µM (U251; Homo sapiens, U-251): 61.6%

O=C1Nc2ccc(Cl)cc2C1=Cc1ccc(OCc2ccccn2)cc1 (mixture of isomers) [Compound 5g, (E/Z)-5-Chloro-3-[4-(pyridin-2-ylmethoxy)benzylidene] indolin-2-one]
inhibition at 10 µM (NCI-H23; Homo sapiens): 37.8% | inhibition at 10 µM (U251; Homo sapiens, U-251): 76.3%

O=C1Nc2ccc(Cl)cc2C1=Cc1ccc(OCc2cccnc2)cc1 (mixture of isomers) [Compound 5k, (E/Z)-5-Chloro-3-[4-(pyridin-3-ylmethoxy)benzylidene] indolin-2-one]
inhibition at 10 µM (NCI-H23; Homo sapiens): 16.7% | inhibition at 10 µM (U251; Homo sapiens, U-251): 27.3%

O=C1Nc2ccccc2C1=Cc1ccc(OCc2ccccn2)cc1 (mixture of isomers) [Compound 5e, (E/Z)-3-[4-(Pyridin-2-ylmethoxy]benzylidene) indolin-2-one]
inhibition at 10 µM (NCI-H23; Homo sapiens): 21.4% | inhibition at 10 µM (U251; Homo sapiens, U-251): 46.5%

O=C1Nc2cc(Cl)ccc2C1=Cc1ccc(OCc2ccccc2)cc1 (mixture of isomers) [Compound 5d, (E/Z)-3-[4-(Benzyloxy)benzylidene]-6-chloroindolin-2-one]
inhibition at 10 µM (NCI-H23; Homo sapiens): 5.71% | inhibition at 10 µM (U251; Homo sapiens, U-251): -4.25%

O=C1Nc2ccc(Cl)cc2C1=Cc1ccc(OCc2ccncc2)cc1 (mixture of isomers) [Compound 5o, (E/Z)-5-Chloro-3-[4-(pyridin-4-ylmethoxy)benzylidene] indolin-2-one]
inhibition at 10 µM (NCI-H23; Homo sapiens): 55.3% | inhibition at 10 µM (U251; Homo sapiens, U-251): 66.9%

O=C1Nc2cc(Cl)ccc2C1=Cc1ccc(OCc2cccnc2)cc1 (mixture of isomers) [Compound 5l, (E/Z)-6-Chloro-3-[4-(pyridin-3-ylmethoxy)benzylidene] indolin-2-one]
inhibition at 10 µM (NCI-H23; Homo sapiens): 75.6% | GI50 (NCI-H23; Homo sapiens, five-dose, NCI-H23): 5.93 µM | TGI (NCI-H23; five-dose, NCI-H23): >100 µM | inhibition at 10 µM (U251; Homo sapiens, U-251): 76.4% | GI50 (U251; Homo sapiens, U-251, five-dose, U251): 7.55 µM | CC50 (U251; Homo sapiens, U-251, five-dose, U251, read-out: LC50 (the source's name)): > 100 µM | TGI (U251; five-dose, U251): 39.40 µM | GI50 (Breast cancer subpanel; Homo sapiens, five-dose, Breast cancer subpanel, read-out: MG-MID (GI50)): 8.14 µM | Selectivity Index (Breast cancer subpanel; ratio of full-panel MG-MID to Breast cancer subpanel MG-MID): 1.50 | GI50 (CNS cancer subpanel; Homo sapiens, five-dose, CNS cancer subpanel, read-out: MG-MID (GI50)): 11 µM | Selectivity Index (CNS cancer subpanel; ratio of full-panel MG-MID to CNS cancer subpanel MG-MID): 1.11 | inhibition at 10 µM (Colon cancer subpanel; Homo sapiens, 10 µM, colon cancer, read-out: overall inhibition in panel (radar chart)): > 90% | GI50 (Colon cancer subpanel; Homo sapiens, five-dose, Colon cancer subpanel, read-out: MG-MID (GI50)): 5.97 µM | Selectivity Index (Colon cancer subpanel; ratio of full-panel MG-MID to Colon cancer subpanel MG-MID): 2.05 | inhibition at 10 µM (Leukemia subpanel; Homo sapiens, 10 µM, leukemia, read-out: overall inhibition in panel (radar chart)): > 90% | GI50 (Leukemia subpanel; Homo sapiens, five-dose, Leukemia subpanel, read-out: MG-MID (GI50)): 3.39 µM | Selectivity Index (Leukemia subpanel; ratio of full-panel MG-MID to Leukemia subpanel MG-MID): 3.61 | inhibition at 10 µM (Melanoma subpanel; Homo sapiens, 10 µM, melanoma, read-out: overall inhibition in panel (radar chart)): > 90% | GI50 (Melanoma subpanel; Homo sapiens, five-dose, Melanoma subpanel, read-out: MG-MID (GI50)): 10.9 µM | Selectivity Index (Melanoma subpanel; ratio of full-panel MG-MID to Melanoma subpanel MG-MID): 1.12 | GI50 (NSCL cancer subpanel; Homo sapiens, five-dose, NSCL cancer subpanel, read-out: MG-MID (GI50)): 11.7 µM | Selectivity Index (NSCL cancer subpanel; ratio of full-panel MG-MID to NSCL cancer subpanel MG-MID): 1.05 | GI50 (Ovarian cancer subpanel; Homo sapiens, five-dose, Ovarian cancer subpanel, read-out: MG-MID (GI50)): 29.4 µM | Selectivity Index (Ovarian cancer subpanel; ratio of full-panel MG-MID to Ovarian cancer subpanel MG-MID): 0.42 | GI50 (Prostate cancer subpanel; Homo sapiens, five-dose, Prostate cancer subpanel, read-out: MG-MID (GI50)): 9.78 µM | Selectivity Index (Prostate cancer subpanel; ratio of full-panel MG-MID to Prostate cancer subpanel MG-MID): 1.25 | GI50 (Renal cancer subpanel; Homo sapiens, five-dose, Renal cancer subpanel, read-out: MG-MID (GI50)): 19.8 µM | Selectivity Index (Renal cancer subpanel; ratio of full-panel MG-MID to Renal cancer subpanel MG-MID): 0.62 | inhibition at 10 µM (FGFR1): 24.1% | inhibition at 10 µM (IGF1R): 2.88% | inhibition at 10 µM (JAK1): 4.17% | inhibition at 10 µM (PDGFRα): 43.5% | inhibition at 10 µM (PDGFRβ): 26.6% | inhibition at 10 µM (PTK2B): 9.96% | inhibition at 10 µM (SRC): 10.9% | inhibition at 10 µM (VEGFR-2): 38.5% | inhibition at 10 µM (CDK2; 10 µM, CDK2): 87.7% | IC50 (CDK2; three separate experiments ± SD): 0.00817 ± 0.00032 µM
